Laboratory results taken from US20220339178A1, “COMPOSITIONS AND METHODS FOR COGNITIVE PROTECTION OF POLLINATORS AGAINST PESTICIDES” (priority 2019, published 2022).

What was measured:
[1] = system: Honey bee foragers (Apis mellifera scutellata); test: Sucrose responsiveness (sensory sensitivity) of honey bees: flavonoids vs deltamethrin; format: in vivo; settings: for sensitivity (sucrose responsiveness, total PER score) relative to Control bees: honey bees, rutin 1 μM, kaempferol 131.7 μM or both for one day, 17.81 μM deltamethrin next day, pooled score
Description: (§1) Honey bee foragers (Apis mellifera scutellata) were captured from established hives at the Apiary of the Universidad del Rosario (Bogota, Colombia) between 08:00 h and 10:00 h. Bees were ice-anesthetized and harnessed in plastic tubes and maintained under laboratory conditions for the duration of the experiment (three days).
On the first day, bees were randomly allocated to one of four treatments administered as two doses (morning: 20 μL; afternoon:10 μL): i) Control (1M sucrose solution), ii) Rutin 1 μM (Sigma-Aldrich R5143), iii) Kaempferol 131.7 μM (Sigma-Aldrich K0133), iv) Rutin-Kaempferol composition (final concentration of […] rutin and 131.7 μM kaempferol). All solutions were diluted in 1M sucrose solution to the concentrations described above. The next day, bees from each group were randomly assigned to one of two treatments: […] of 1M sucrose solution or 17.81 μM deltamethrin (Dinastia Bayer). Thus, bees belonged to one of eight treatments: i) Sucrose water (Control), ii) Rutin (Rut), iii) Kaempferol (Kaemp), iv) Kaempferol+Rutin (Kaemp+Rut), v) Deltamethrin (Delta), vi) Rutin+Deltamethrin (Rut+Delta), vii) Kaempferol+Deltamethrin (Kaemp+Delta), viii) Kaempferol+Rutin+Deltamethrin ((Kaemp+Rut)+Delta). All solutions were diluted in 1M sugar water to the concentrations described above.
Sensory sensitivity was evaluated using responsiveness to sucrose, a proxy of resource exploitation by foragers. On the second day, bees of the eight treatments described above were tested five times for their response threshold (0 h, 1 h, 2 h, 3 h and 4 h). The first measure (0 h) was done prior to pesticide administration. Bees were tested with an ascending sucrose concentration of 0.1, 0.3, 1, 3, 10 and 30% (w/w). Between each concentration, the bees were presented with pure water as a control for potential sensitization or habituation (Pankiw et al., Behav Ecol Sociobiol (2000) 47:265-267). The inter-trial time between the presentation of each sucrose concentration was at least 4 minutes. For each presentation, the reflexive extension of the proboscis (tongue) of the bee, after antennal stimulation with the solution was recorded. After the last measure (4 h), bees were fed with 10 μL of 1M sucrose solution and maintained until the next day for a final test (24 hours after pesticide administration).
For each bee, a responsiveness score was determined (0-7) 0 h, 1 h, 2 h, 3 h, 4 h and 24 h, and a pooled scored (0-42). Normal distribution of the scores was tested using Shapiro-Wilk W Test for the null hypothesis that data is from a Normal distribution. […] Thus, non-parametric tests were used for comparisons across treatments and for multiple comparisons. Overall changes of responses across different concentrations were evaluated using repeated-measured MANOVA. Error associated with multiple comparisons was controlled using the Two-stage sharpened False Discovery Rate, and corrected p-values (q-values) are presented. Data were explored for outliers using a single run of Robust Fit outliers test. All analyses were conducted using JMP v.14 (SAS Institute Inc.)

[2] = system: bumblebee Bombus impatiens; test: Olfactory conditioning of PER in bumblebees: ad libitum rutin vs acute imidacloprid or fipronil; format: in vivo
Description: One colony of the bumblebee Bombus impatiens (Koppert Inc) was kept in laboratory conditions. Bees received pollen inside the nests and foraged to a 1M sugar-water feeder outside of the nest. Bees were collected while on the feeder and iced anesthetized to then be randomly assigned to one of two plastic containers where ad libitum self-administration of one of two solutions was allowed to 10 bees: i) 1 M sucrose water or ii) 1 μM Rutin (Sigma-Aldrich R5143) diluted in 1M sucrose water. On the night of the third day, the feeder was removed to starve the bees. On the fourth day, the bees were iced anesthetized and yolked restrained in plastic pipettes. Bees were maintained in the pipettes for the rest of the experiment (two days). One hour after harnessing, the bees were randomly assigned to one of three treatments: i) 20 μL of 1M sucrose water, ii) 20 μL of 1M sucrose water+5 nM imidacloprid, iii) 20 μL of 1M sucrose water+6 nM fipronil. Thus, overall bees belonged to one of six treatments:
Control: ad libitum sucrose water for three days and 20 μL of sucrose water before training
Rutin: ad libitum 1 μM Rutin for three days and 20 μL of sucrose water before training
Imid: ad libitum sucrose water for three days and 20 μL of 5 nM Imidacloprid in 1M sugar water 2 hours before training
Rutin+Imid: ad libitum 1 μM Rutin for three days and 20 μL of 5 nM Imidacloprid in 1M sugar water 2 hours before training
Fipronil: ad libitum sucrose water for three days and 20 μL of 5 nM fipronil in 1M sucrose water 2 hours before training
Rutin+Fipronil: ad libitum […] Rutin for three days and 20 μL of 6 nM fipronil in 1M sugar water 2 hours before training
(§2) All bees were blind-trained using olfactory conditioning of the proboscis extension response (PER). Briefly, bees were exposed to a presentation of 1-nonanol (Sigma-Aldrich) for 10 s. After 7 s of the onset of the odor presentation, the antenna was stimulated with 1.5 M sugar-water to elicit the PER. Following the PER, the bee was allowed to drink sugar-water for 3 s. Each paired presentation was considered a training trial and each individual received eleven training trials with an average intertrial interval of 10 minutes. After training, all bees were fed 20 μL of 1M sugar water and maintained in plastic boxes for 24 h until the retention test. […] Twenty-four hours after the last training trial the bees were presented with the conditioned odor for 10 s.
(§3) Learning for each individual was quantified as the number of conditioned PER responses across the trials. Thus, for each bee a learning score between zero and ten (0-10) was recorded.
(§4) Multiple comparisons were then run comparing learning score relative to Control bees using a non-parametric one or two-tailed Steel Method depending upon predictions. These comparisons informed us about the predicted impairment produced by the insecticides, the predicted innocuous effect of the flavonoid and the potential level of protection. Error due to multiple comparisons was controlled using the False Discovery Rate method (FDR-two stage sharpened method). In all cases corrected p-values (q-values) are presented.
(§5) Memory retention was quantified as a nominal variable (yes/no). Data were compared across treatments using a Chi-square test, followed by multiple comparisons of all treatments vs. Control. Error due to multiple comparisons was controlled using the FDR as indicated above. In all cases corrected p-values (q values) are presented.
Latency was quantified as a continuous variable between 0.5 s and 10 s. Data were compared across treatments using an ANOVA following a Log transformation to normalize the distribution (Shapiro-Wilk W Test after log transformation: p>0.05 for all treatments for the null hypothesis that data is from a normal distribution), followed by multiple comparisons between all treatments and the Control group. Error due to multiple comparisons was controlled using the FDR method as indicated above. […]

[3] = system: Honey bee foragers (Apis mellifera scutellata); test: Classical conditioning of PER in honey bees: rutin, kaempferol, p-coumaric acid vs fipronil; format: in vivo; settings: for learning score relative to Control bees: score 0-10, 1 μM rutin, 131 μM kaempferol, 200 μM p-coumaric acid or Mix twice a day for three days, 228 nM fipronil 10 μL three hours before training; for latency of response relative to Control bees: Dunnett's method
Description: as §1, with “(five” for “(three”, “days). Food was provided twice a day in a volumen of 10 μL and varied in composition according to experimental treatments.” for “days).”
Bees were randomly allocated to one of the following treatments administered twice a day for three consecutive days (all concentrations are final):
Control: 1M sucrose water (10 μL)
Rut: 1 μM rutin (Sigma-Aldrich: R5143)-1M sugar water (10 μL)
Kaemp:131 μM kaempferol (Sigma-Aldrich:K0133)+1M sugar water (10 μL)
p-Cou A: 200 μM p-coumaric acid (Sigma-Aldrich:C9008) diluted in 1M sugar water (10 μL)
Mix: 1 μM rutin, 131 μM kaempferol and 200 μM p-Coumaric acid): Bees fed with composition diluted in 1M sugar water (10 μL) fed twice a day for three days
On the fourth day, bees were randomly assigned to one of two treatments three hours before training:
Fipronil: 10 μL of 228 nM Fipronil (Astuto Invesa) in 1M sucrose water
Sucrose solution: 10 μL 1M sucrose water
Thus, bees belong to one of ten treatments: Control, Kaemp, Rut, p-Cou A, Mix, Fipro, Kaemp+Fipro, Rut+Fipro, p-Cou A+Fipro, Mix+Fipro.
Bees were trained using classical conditioning of the proboscis extension response (PER). Briefly, bees received a soft current of clean air for 15 seconds to allow bees to accommodate. Then a soft current of 1-hexanol (Sigma-Aldrich: 471402) was injected for 10 seconds. Six seconds after injection of 1-hexanol, one of the antennae was stimulated with sugar water (1.5M), which leads to the reflexive extension of the proboscis, and the bee was allowed to drink for 4 seconds. Thus, the reward and the stimulus overlapped for four seconds. This sequence, recognized as a training trial, was repeated eleven times. Time was determined using a metronome (2 Hz). Memory retention was tested 24 hours after the eleven training trials. […] 12 bees were trained each session. Training was conducted by an experimenter blind to treatment.
as §3, §4, §5
Latency was quantified as a continuous variable between 0.5 s and 10 s. Data were compared across treatments using an ANOVA following a Log transformation to normalize the distribution (Shapiro-Wilk W Test after log transformation: p>0.05 for all treatments for the null hypothesis that data is from a normal distribution), followed by multiple comparisons between all treatments and the Control group (Dunnett's method). Error due to multiple comparisons was controlled using the FDR method as indicated above. In all cases corrected p-values (q-values) are presented.

[4] = system: bumblebee Bombus impatiens; test: Olfactory conditioning of PER in bumblebees: self-administered rutin vs chronic fipronil; format: in vivo
Description: One colony of the bumblebee Bombus impatiens (Koppert Inc) was kept in laboratory conditions. Bees received pollen inside the nests and foraged to a 1M sugar-water feeder outside of the nest. Bees were collected while on the feeder and iced anesthetized to then be randomly assigned to one of four plastic containers where self-administration of one of two solutions was allowed to 10 bees out of two feeders (glass vials with 500 μL of solution each): i) 1 M sucrose water or ii) 1 μM Rutin (Sigma-Aldrich R5143) diluted in 1M sucrose water. Feeders were refilled each day for three days. On the night of the third day, one of the vials was replaced by a new one with one of two solutions: i) 1 M sucrose water or ii) 1M sucrose water+6 nM fipronil. Feeders were refilled each day for three more days, thus providing a chronic exposure to fipronil. On the night of the […] day, bees were iced anesthetized and yolked restrained in plastic pipettes. Thus, bees belonged to one of four treatments:
Control: self-administered sucrose water for six days
Rut: self-administered rutin for six days
Fipro: self-administered sucrose water for three days followed by three days of self-administered sucrose water (one feeder) and fipronil (one feeder).
Rut+Fipro: self-administered rutin for three days followed by three days of self-administered rutin (one feeder) and fipronil (one feeder).
as §2, §3
as §4, with “fipronil,” for “insecticides,”, “rutin” for “flavonoid”
as §5
Latency was quantified as a continuous variable between 0.5 s and 10 s. […]

AChE = settings: literature report; cited from earlier work
[5] = system: butyrylcholinesterase (BChE); settings: literature report; cited from earlier work
[6] = bumblebees, 24 h retention test

## CC1(C)[C@H](C(=O)O[C@H](C#N)c2cccc(Oc3ccccc3)c2)[C@@H]1C=C(Br)Br [Deltamethrin]
[1]; 24 h
  sensitivity 24 h after administration of the insecticide relative to Control bees: lowest sensitivity
[1]; after 4 hours
  bees responding to 30% sucrose water: less than 30%
[1]; after 24 hours
  improvement in response to 30% sucrose water: 10%
[1]; after one hour
  bees responsive to 30% sucrose-water: less than 40%
[1]
  sensitivity (sucrose responsiveness, total PER score) relative to Control bees: significantly lower

## N#Cc1nn(-c2c(Cl)cc(C(F)(F)F)cc2Cl)c(N)c1[S+]([O-])C(F)(F)F (stereo not drawn) [Fipronil]
[2]; 24 h retention
  odds of remembering for Control bees relative to insecticide bees: 3.4 times
  proportion difference Control minus insecticide group for a PER response (Adjusted Wald test): 0.30
[2]; bumblebees
  decision-making ratio (latency of response / learning score) relative to Control bees: significant increase
[2]; [6]
  bees exhibiting a conditioned response after 24 h: 34.6%
[2]; bumblebees, score 0-10, ad libitum 1 μM rutin three days, 5 nM imidacloprid or 6 nM fipronil 20 μL 2 hours before training
  learning score relative to Control bees: significantly lower
[3]; 24 h retention
  proportion difference Control minus treatment for a PER response (Adjusted Wald test): 0.545
[3]; honey bees, 24 h retention test
  bees exhibiting a conditioned response after 24 h: None
[3]; honey bees
  learning score relative to Control bees: significantly lower
[4]; 24 h retention
  odds of remembering for Control bees relative to Fipro bees: 8.7 times
  proportion difference Control-Fipro for a PER response (Adjusted Wald test): 0.48
[4]; [6]
  bees exhibiting a conditioned response after 24 h: 33.3%
[4]; bumblebees, score 0-10, self-administered 1 μM rutin six days, 6 nM fipronil feeder for the last three days (chronic)
  learning score relative to Control bees: significantly lower

## O=c1c(O)c(-c2ccc(O)cc2)oc2cc(O)cc(O)c12 [Kaemp, Kaempferol]
[1]
  sensitivity (sucrose responsiveness, total PER score) relative to Control bees: not significantly affected
[3]
  latency of response relative to Control bees: not significantly different from Control
[3]; honey bees
  learning score relative to Control bees: not significantly different from Control bees

## C=CC(C)(C)c1c2c(c(O)c3c(=O)c4ccc(O)c(O)c4oc13)C=CC(C)(C)O2 [macluraxanthone]
AChE
  inhibition of AChE: concentration-dependent inhibition ability
[5]
  inhibition of butyrylcholinesterase (BChE): concentration-dependent inhibition ability

## O=C(O)/C=C/c1ccc(O)cc1 [p-CouA, p-coumaric acid]
[3]
  latency of response relative to Control bees: not significantly different from Control
[3]; honey bees
  learning score relative to Control bees: not significantly different from Control bees
